Measured values from PubChem BioAssay (NCI).
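A five-concentration, 48-hour dose response in 96-well plates underlies each endpoint, interpolated linearly between surrounding concentrations. At the GI50, growth is halved. TGI is the concentration that stops growth completely.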

Experiments:
Assay in all cases: NCI anticancer screen, dose series, 48 h
786-0 renal = test system: 786-0 renal
A498 renal = test system: A498 renal
A549 NSCLC = test system: A549 NSCLC
ACHN renal = test system: ACHN renal
BT-549 breast = test system: BT-549 breast
CAKI-1 renal = test system: CAKI-1 renal
CCRF-CEM leukemia = test system: CCRF-CEM leukemia
COLO 205 colon = test system: COLO 205 colon
DU-145 prostate = test system: DU-145 prostate
EKVX NSCLC = test system: EKVX NSCLC
HCC-2998 colon = test system: HCC-2998 colon
HCT-116 colon = test system: HCT-116 colon
HCT-15 colon = test system: HCT-15 colon
HL-60(TB) leukemia = test system: HL-60(TB) leukemia
HOP-62 NSCLC = test system: HOP-62 NSCLC
HOP-92 NSCLC = test system: HOP-92 NSCLC
HS 578T breast = test system: HS 578T breast
HT29 colon = test system: HT29 colon
IGROV1 ovarian = test system: IGROV1 ovarian
K-562 leukemia = test system: K-562 leukemia
KM12 colon = test system: KM12 colon
LOX IMVI melanoma = test system: LOX IMVI melanoma
M14 melanoma = test system: M14 melanoma
MALME-3M melanoma = test system: MALME-3M melanoma
MCF7 breast = test system: MCF7 breast
MDA-MB-231 breast = test system: MDA-MB-231 breast
MDA-MB-435 = test system: MDA-MB-435
MOLT-4 leukemia = test system: MOLT-4 leukemia
NCI-H226 lung = test system: NCI-H226 lung
NCI-H23 lung = test system: NCI-H23 lung
NCI-H460 lung = test system: NCI-H460 lung
NCI-H522 lung = test system: NCI-H522 lung
NCI/ADR-RES ovarian = test system: NCI/ADR-RES ovarian
OVCAR-3 ovarian = test system: OVCAR-3 ovarian
OVCAR-4 ovarian = test system: OVCAR-4 ovarian
OVCAR-5 ovarian = test system: OVCAR-5 ovarian
OVCAR-8 ovarian = test system: OVCAR-8 ovarian
PC-3 prostate = test system: PC-3 prostate
RPMI-8226 leukemia = test system: RPMI-8226 leukemia
RXF 393 renal = test system: RXF 393 renal
SF-268 CNS = test system: SF-268 CNS
SF-295 CNS = test system: SF-295 CNS
SF-539 CNS = test system: SF-539 CNS
SK-MEL-2 melanoma = test system: SK-MEL-2 melanoma
SK-MEL-28 melanoma = test system: SK-MEL-28 melanoma
SK-MEL-5 melanoma = test system: SK-MEL-5 melanoma
SK-OV-3 ovarian = test system: SK-OV-3 ovarian
SN12C renal = test system: SN12C renal
SNB-19 CNS = test system: SNB-19 CNS
SNB-75 CNS = test system: SNB-75 CNS
SW-620 colon = test system: SW-620 colon
T-47D breast = test system: T-47D breast
TK-10 renal = test system: TK-10 renal
U251 CNS = test system: U251 CNS
UACC-257 melanoma = test system: UACC-257 melanoma
UACC-62 melanoma = test system: UACC-62 melanoma
UO-31 renal = test system: UO-31 renal

## COc1ccc(-n2c(SCC(=O)Nc3ccc(-c4nc5ccccc5[nH]4)cc3)nc3ccccc3c2=O)cc1
786-0 renal
  GI50: 17.7 µM
  TGI: 34.2 µM
A498 renal
  GI50: > 100 µM
  TGI: > 100 µM
A549 NSCLC
  GI50: 3.58 µM
  TGI: 14.2 µM
ACHN renal
  GI50: 17.1 µM
  TGI: 33.7 µM
BT-549 breast
  GI50: 8.06 µM
  TGI: 24.5 µM
CAKI-1 renal
  GI50: 29.7 µM
  TGI: > 100 µM
CCRF-CEM leukemia
  GI50: 6.15 µM
  TGI: > 100 µM
COLO 205 colon
  GI50: 28.3 µM
  TGI: 76.6 µM
DU-145 prostate
  GI50: 10.9 µM
  TGI: 33 µM
EKVX NSCLC
  GI50: 47.2 µM
  TGI: > 100 µM
HCC-2998 colon
  GI50: 14.3 µM
  TGI: 46 µM
HCT-116 colon
  GI50: 4.88 µM
  TGI: 26.2 µM
HCT-15 colon
  GI50: 2.95 µM
  TGI: 12 µM
HL-60(TB) leukemia
  GI50: 9.91 µM
  TGI: > 100 µM
HOP-62 NSCLC
  GI50: 23.3 µM
  TGI: 59.6 µM
HOP-92 NSCLC
  GI50: 12.7 µM
  TGI: 31.3 µM
HS 578T breast
  GI50: 21.6 µM
  TGI: 71.5 µM
HT29 colon
  GI50: 15 µM
  TGI: 36.5 µM
IGROV1 ovarian
  GI50: 15.2 µM
  TGI: 42.9 µM
K-562 leukemia
  GI50: 4.82 µM
  TGI: > 100 µM
KM12 colon
  GI50: 51.4 µM
  TGI: > 100 µM
LOX IMVI melanoma
  GI50: 2.1 µM
  TGI: 3.91 µM
M14 melanoma
  GI50: 13.1 µM
  TGI: 55.5 µM
MALME-3M melanoma
  GI50: 2.58 µM
  TGI: 16.2 µM
MCF7 breast
  GI50: 2.05 µM
  TGI: 5.11 µM
MDA-MB-231 breast
  GI50: 16.2 µM
  TGI: 49.6 µM
MDA-MB-435
  GI50: 9.17 µM
  TGI: 27.6 µM
MOLT-4 leukemia
  GI50: 5.85 µM
  TGI: > 100 µM
NCI-H226 lung
  GI50: > 100 µM
  TGI: > 100 µM
NCI-H23 lung
  GI50: 10.2 µM
  TGI: 35.1 µM
NCI-H460 lung
  GI50: 3.39 µM
  TGI: 12.1 µM
NCI-H522 lung
  GI50: 14.5 µM
  TGI: 32.3 µM
NCI/ADR-RES ovarian
  GI50: 16.7 µM
  TGI: > 100 µM
OVCAR-3 ovarian
  GI50: 18 µM
  TGI: 39.7 µM
OVCAR-4 ovarian
  GI50: 7.74 µM
  TGI: 20.8 µM
OVCAR-5 ovarian
  GI50: 23.7 µM
  TGI: > 100 µM
OVCAR-8 ovarian
  GI50: 18.1 µM
  TGI: 39.6 µM
PC-3 prostate
  GI50: 18 µM
  TGI: 62.9 µM
RPMI-8226 leukemia
  GI50: 3.72 µM
  TGI: 70.5 µM
RXF 393 renal
  GI50: 12.7 µM
  TGI: 27.3 µM
SF-268 CNS
  GI50: 42.9 µM
  TGI: > 100 µM
SF-295 CNS
  GI50: 13.3 µM
  TGI: 27.9 µM
SF-539 CNS
  GI50: 14.1 µM
  TGI: 27.8 µM
SK-MEL-2 melanoma
  GI50: 50.7 µM
  TGI: > 100 µM
SK-MEL-28 melanoma
  GI50: 3.52 µM
  TGI: 13.4 µM
SK-MEL-5 melanoma
  GI50: 14 µM
  TGI: 30.4 µM
SK-OV-3 ovarian
  GI50: > 100 µM
  TGI: > 100 µM
SN12C renal
  GI50: 11.3 µM
  TGI: 25.6 µM
SNB-19 CNS
  GI50: 17.9 µM
  TGI: 60.2 µM
SNB-75 CNS
  GI50: 19.9 µM
  TGI: 91.9 µM
SW-620 colon
  GI50: 6.63 µM
  TGI: 42.5 µM
T-47D breast
  GI50: 17.3 µM
  TGI: 36.7 µM
TK-10 renal
  GI50: 21.6 µM
  TGI: 42 µM
U251 CNS
  GI50: 15.1 µM
  TGI: 31.5 µM
UACC-257 melanoma
  GI50: 19 µM
  TGI: 39.2 µM
UACC-62 melanoma
  GI50: 15.8 µM
  TGI: 30.5 µM
UO-31 renal
  GI50: 11.8 µM
  TGI: 29.1 µM
